Results published in patent US8252832B2, “Kinesin inhibitors as cancer therapeutics” (Novartis AG, priority 2007, dated 2012).
Read-outs that look alike come from different tables or passages of the source.

Key:
Assay in all cases: CellTiter-Glo, NCI60 panel
Format in all cases: cell-based
BT-474 = conditions: Breast; for GI50: Homo sapiens
Excerpt: (§1) Identification of tumor types that are the most sensitive to the KSP inhibitors of the present invention can be accomplished using an unbiased approach that uses several cell-based assays. The assays chosen were as follows: • CellTiter-Glo®. This is an assay designed to measure ATP concentration in a cell culture, and can be correlated to cell number. Briefly CellTiter-Glo® (Promega Corporation) is a homogeneous method using the single CellTiter-Glo® reagent to detect ATP wherein ATP in the assay drives the activity of a thermostable luciferase to create a luminescent signal which can then be measured and correlated with the number of viable cells. Briefly, for adherent cells, 1,000 to 5,000 cells/well were plated in 96-well plates (100 μl/well) and let to adhere for 24 hours before being treated with drug. For non-adherent cells, 1,000 to 10,000 cells/well were plated in 96-well plates (100 μl/well) and immediately treated with drug. Drug dilutions were prepared in DMSO at 1000 times the final concentration. These dilutions were then diluted 1/100 in growth media before being added to the cells (11 μl/well) to achieve the desired final concentration. After 48 h in a 37° C. tissue culture incubator, the plates were processed for the CellTiter-Glo®assay according to the manufacturer's instructions. Protocol for a 72 hour cell proliferation assay: The 72 hour assay was performed the same way as the 48 hour assay except for the following modifications: For adherent cells, 500 to 5,000 cells/well were plated in 96-well plates (90 μl/well cell growth media) and left to adhere for 24 hours before being treated with drug. For non-adherent cells, 1,000 to 10,000 cells/well were plated in 96-well plates (90 μl/well cell growth media) and immediately treated with drug. Data values presented represent the concentration of test compound required for a 50% reduction in growth. • LDH release. The Cytotoxicity Detection KitPLUS (LDH) assay (Roche Diagnostics, Manheim, Germany) measures the amount of LDH released in the media by dying cells; LDH catalyzes the conversion of lactate into pyruvate. The enzymatic reaction is coupled to a chemical reaction that uses a tetrazolium salt to form a formazan that is red and can be detected by its absorbance at 490 nm. This assay measures the amount of cell death after drug treatment. Cells were plated at 10,000 cells/well in 96-well plates (100 μl/well). Adherent cells were let to adhere for 24 hours before being treated with drug, whereas non-adherent cells were immediately treated with drug. Drug dilutions were prepared in DMSO at 1000 times the final concentration. These dilutions were then diluted 1/100 in growth media before being added to the cells (11 μl/well) to achieve the desired final concentration. After 48 h in a 37° C. tissue culture incubator, the plates were processed for the Cytotoxicity Detection KitPLUS (LDH) assay according to the manufacturer's instructions. The media only values were subtracted from all the data points before analysis. Data values presented correspond to the compound concentration wherein LDH output is at half maximal level. • Caspase-Glo® 3/7. The Caspase-Glo® 3/7 Assay (Promega Corporation) is a homogeneous luminescent assay that measures caspase-3/7 activities. The assay provides a proluminescent caspase-3/7 DEVD-aminoluciferin substrate and a thermostable luciferase in a reagent optimized for caspase-3/7 activity, luciferase activity and cell lysis. Adding the single Caspase-Glo® 3/7 Reagent results in cell lysis, followed by caspase cleavage of the substrate. This liberates free aminoluciferin, which is consumed by the luciferase, generating a luminescent signal. The signal is proportional to caspase-3/7 activity. Data values presented correspond to the compound concentration wherein caspase 3/7 activity is at half maximal level. […]

SK-MEL-5 = conditions: Melanoma; for GI50: Homo sapiens
Excerpt: as §1

786-0 = conditions: Renal; for GI50: Homo sapiens
Excerpt: as §1

DU-145 = conditions: Prostate; for GI50: Homo sapiens
Excerpt: as §1

BT-549 = conditions: Breast; for GI50: Homo sapiens
Excerpt: as §1

SW-620 = conditions: Colon; for GI50: Homo sapiens
Excerpt: as §1

A549 = conditions: NSCL; for GI50: Homo sapiens
Excerpt: as §1

KM12 = conditions: Colon; for GI50: Homo sapiens
Excerpt: as §1

M14 = conditions: Melanoma; for GI50: Homo sapiens
Excerpt: as §1

SF-268 = conditions: CNS; for GI50: Homo sapiens
Excerpt: as §1

OVCAR-5 = conditions: Ovarian; for GI50: Homo sapiens
Excerpt: as §1

ACHN = conditions: Renal; for GI50: Homo sapiens
Excerpt: as §1

TK-10 = conditions: Renal; for GI50: Homo sapiens
Excerpt: as §1

SR = conditions: Leukemia; for GI50: Homo sapiens
Excerpt: as §1

SF-295 = conditions: CNS; for GI50: Homo sapiens
Excerpt: as §1

NCI-H226 = conditions: NSCL; for GI50: Homo sapiens
Excerpt: as §1

[1] = GI50 in nM, read-out: Log(GI50) (converted)

CC(C)(C)[C@H](c1nc(-c2cc(F)ccc2F)cn1Cc1ccccc1)N(CC[C@H](N)CF)C(=O)CO [Compound IIa]
0.693: Differential vs mean Log(GI50) (DU-145)
1.122: Differential vs mean Log(GI50) (SF-295)
0.209 nM: GI50 (M14; [1]) | GI50 (M14; read-out: GI50)
1.011: Differential vs mean Log(GI50) (M14)
1.353: Differential vs mean Log(GI50) (SR)
0.423 nM: GI50 (KM12; [1]) | GI50 (KM12; read-out: GI50)
0.236 nM: GI50 (SW-620; [1]) | GI50 (SW-620; read-out: GI50)
0.095 nM: GI50 (SR; [1]) | GI50 (SR; read-out: GI50)
0.423: Differential vs mean Log(GI50) (BT-549)
0.809 nM: GI50 (BT-549; [1]) | GI50 (BT-549; read-out: GI50)
0.435 nM: GI50 (DU-145; [1]) | GI50 (DU-145; read-out: GI50)
0.958: Differential vs mean Log(GI50) (SW-620)
0.162 nM: GI50 (SF-295; [1]) | GI50 (SF-295; read-out: GI50)
0.705: Differential vs mean Log(GI50) (KM12)
10 nM: GI50 (BT-474; [1]) | GI50 (BT-474; read-out: GI50) | GI50 (SK-MEL-5; [1]) | GI50 (SK-MEL-5; read-out: GI50) | GI50 (786-0; [1]) | GI50 (786-0; read-out: GI50) | GI50 (A549; [1]) | GI50 (A549; read-out: GI50) | GI50 (SF-268; [1]) | GI50 (SF-268; read-out: GI50) | GI50 (OVCAR-5; [1]) | GI50 (OVCAR-5; read-out: GI50) | GI50 (ACHN; [1]) | GI50 (ACHN; read-out: GI50) | GI50 (TK-10; [1]) | GI50 (TK-10; read-out: GI50) | GI50 (NCI-H226; [1]) | GI50 (NCI-H226; read-out: GI50)
−0.669: Differential vs mean Log(GI50) (BT-474) | Differential vs mean Log(GI50) (SK-MEL-5) | Differential vs mean Log(GI50) (786-0) | Differential vs mean Log(GI50) (A549) | Differential vs mean Log(GI50) (SF-268) | Differential vs mean Log(GI50) (OVCAR-5) | Differential vs mean Log(GI50) (ACHN) | Differential vs mean Log(GI50) (TK-10) | Differential vs mean Log(GI50) (NCI-H226)
